Experimental data published in US20210121482A1, “WITHANOLIDES FOR THE TREATMENT OF CACHEXIA” (University of Louisville Research Foundation, Inc., priority 2019, published 2021).

Columns and labels:
A2780 cells = assay: Free peritoneal tumor weight (Example 1); assay type: in vivo, mice; conditions: 2 and 6 mg/kg, vs vehicle treated group
Excerpt: Free peritoneal tumors (visible tumors) not associated with an organ were collected and weighed to assess WFA effects. […] At the time of euthanization and tissue collection, tumors associated with the intestines were found most frequently in the vehicle treated group and were of the largest size.

TA, GA and QF muscles = assay: Skeletal muscle weight and myofiber CSA (Example 1); assay type: in vivo, mice
Excerpt: Histology and Morphometric Analysis of Skeletal Muscle: The tibialis anterior (TA), gastrocnemius (GA) and quadriceps femoris (QF) of the mice were isolated, flash frozen in liquid nitrogen, mounted in OCT embedding medium, and then sectioned using a microtome cryostat. To assess tissue morphology, 10 μm thick transverse sections were cut from the mid-belly of the muscle and then subjected to hematoxylin and eosin (H&E) staining. Images of H&E-stained TA/GA/QF muscle sections were quantified using Image J and/or Fiji software to measure myofiber cross-sectional area (CSA). Myofiber CSA was calculated by analyzing ˜350-500 myofibers per muscle.

phospho-p65 (NF-κB) = assay: Western blot and IHC of p65 in tumor samples; assay type: in vivo, mice; conditions: 2 and 6 mg/kg
Experimental: Immunohistochemistry of Tumor Tissue: For the detection of various proteins, 10 μm thick sections were made from the midsection of tumor samples. A hydrophobic boundary was drawn around the sections and then they were fixed in 3.7% formaldehyde solution for 10 minutes. The slides were washed three times with 1×PBS for 5 minutes each. The sections were then blocked in 2% BSA in PBS for 30 minutes. The sections were then incubated with primary antibodies (1:100 dilution) overnight in a humidity chamber at 4° C. The sections were then washed three times with 1×PBS for 5 minutes. The slides were incubated in appropriate secondary antibodies (1:2000 dilution) for 45-60 minutes. Sections were counterstained with DAPI (1:2500 dilution) for 5 minutes to visualize nuclei. Slides were then washed twice in 1×PBS for 5 minutes, and then mounted for visualization. Nonspecific background staining was determined by performing the above protocol with omitting the inclusion of the primary antibodies. Refer to Table 2 for a complete list of antibodies utilized.
Protein Extraction and Western Blotting: Tumor samples were homogenized in chilled RIPA buffer (Sigma) supplemented with a Complete Mini Protease Inhibitor tablet (Roche Molecular Biochemicals, Indianapolis, Ind.). Tissue lysates were centrifuged at 10,000 RPM and the supernatants were collected. Protein concentration for each sample was determined using the Bradford reagent method (Bio-Rad), according to manufacturer's instructions. Protein lysates ([…]) were separated on 10% SDS-PAGE gels at 100 volts for 2 h. The proteins were transferred to nitrocellulose membranes at 100 volts for 90 minutes. The membranes were blocked with 5% non-fat milk in Tris-buffered saline supplemented with Tween®20 (0.5%; TBS-T) for 30-60 minutes. The membranes were then washed 3 times with TBS-T for 5 minutes. The membranes were then incubated with primary antibody at 4° C. overnight. […]

[1] = system: Pax7, Myod1, UPR, UPS and ALS markers in GA muscle; assay: qPCR of GA muscle (Pax7, Myod1, UPR, UPS, ALS markers); assay type: in vivo, Mus musculus
Experimental: Total RNA Extraction and qPCR: Isolation of total RNA from xenografted tumor samples was performed using an RNeasy® Mini Kit (Qiagen Catalog #74104) according to the manufacturer's instructions. Isolation of total RNA from skeletal muscle was performed using an RNeasy® Fibrous Tissue Mini Kit (Qiagen Catalog #74704) according to the manufacturer's instructions. First strand cDNA was synthesized using 1 μg of purified RNA and a commercially available kit (iScript™ cDNA synthesis, Bio-Rad Catalog #170-8891), Quantification of mRNA expression was performed similar to as previously described (Hindi and Kumar, 2016) using the SYBR Green dye method on a StepOnePlus™ system (Applied Biosystems) using gene-specific primers, as shown in Table 1.
Total RNA Extraction and qPCR: as in Example 1.

Ang II = assay: Plasma Ang II ELISA; assay type: in vivo, mice; conditions: tumor-bearing
Experimental: Plasma Ang II levels were measured with an enzyme-linked immunosorbent assay (ELISA). Blood samples were collected in tubes containing ethylenediaminetetraacetic acid (EDTA) (25 mM), o-phenanthroline (0.44 mM), pepstatin A (0.12 mM), and p-hydroxymercuribenzoic acid (1 mM) and then centrifuged at 1200×g for 10 min. The plasma was collected and stored at −80° C. until further processing. Ang II levels were quantified by using a commercially available ELISA kit according to the manufacturer's instructions (Sigma-Aldrich Catalog #MAK190).

SKOV3 = SKOV3 cells; cited from earlier work
[2] = system: A2780 ovarian cancer xenograft; assay: Survival and tolerability, A2780 xenograft mice (Example 1)
Experimental: Tumor-bearing groups received an IP injection of 1.0×10^6 low passage A2780 cells suspended in 100 μl sterile PBS.
Graphical Display and Statistical Analyses: The majority of the results were expressed as box-and-whisker plots with the box comprised of the first, second, and third quartiles, and the lower and upper whiskers corresponding to the minimum and maximum values, respectively, to display the entire range of data. A Kaplan-Meier curve was used for the survival analysis. Statistical analysis of the data was performed using one-way analysis of variance (ANOVA) followed by Tukey's Honestly Significant Difference Test (HSDT) post hoc analysis or the Mantel-Cox log-rank test to determine statistically significant differences between groups with GraphPad Prism 8.0.1 software for Mac (La Jolla, Calif., USA). A value of P<0.05 was considered statistically significant, unless otherwise specified.

[3] = 2 and 6 mg/kg, vs control group
[4] = 2 and 6 mg/kg, vs vehicle treated group
[5] = tumor-bearing, 2 mg/kg, vs tumor-bearing vehicle
[6] = tumor-bearing, 4 mg/kg, vs tumor-bearing vehicle
[7] = tumor-bearing, 2 and 4 mg/kg, vs tumor-bearing vehicle
[8] = tumor-free, 4 mg/kg, vs tumor-free vehicle
[9] = tumor-free, WFA-treated groups vs vehicle-treated

For `CC1=C(CO)C(=O)O[C@@H]([C@@H](C)[C@H]2CC[C@H]3[C@@H]4C[C@H]5O[C@]56[C@@H](O)C=CC(=O)[C@]6(C)[C@H]4CC[C@]23C)C1` [WFA, (4β,5β,6β,22R)-4,27-Dihydroxy-5,6:22,26-diepoxyergosta-2,24-diene-1,26-dione], the “weight of free peritoneal tumors” value (A2780 cells) was “significantly reduced the size of peritoneal tumors”, the “tumors associated with the intestines” value (A2780 cells; at tissue collection) was “fewer and smaller tumors” and the “normalized wet weight of gastrocnemius (GA)” value (TA, GA and QF muscles; 2 mg/kg, vs control group) was “significant reduction in normalized wet weight”. The “myofibrillar CSA in GA muscle” value (TA, GA and QF muscles; 2 mg/kg, vs control group (p=0.09)) was “restoration of myofibrillar CSA”, the “wet weight of quadriceps femoris (QF)” value (TA, GA and QF muscles; 6 mg/kg, vs control group) was “significant reduction in wet weight” and the “restoration of myofibrillar CSA in GA muscle” value (TA, GA and QF muscles; 6 mg/kg, vs control group (p=0.007)) was “not those treated with 6 mg/kg of WFA”. The “average myofiber CSA (TA and QF)” value (TA, GA and QF muscles; [3]) was “significant reduction in average myofiber CSA”, the “normalized wet weight of tibialis anterior (TA)” value (TA, GA and QF muscles; [3]) was “significant reduction in normalized wet weight” and the “average myofiber CSA (TA, GA, QF)” value (TA, GA and QF muscles; [4]) was “significantly greater than the vehicle treated group”. The “normalized muscle weights (TA, GA, QF)” value (TA, GA and QF muscles; [4]) was “no difference between the vehicle and WFA treated groups”, the “phospho-p65 co-localized with DAPI (nuclear translocation)” value (phospho-p65 (NF-κB)) was “impairment in the translocation of p65 to the nucleus” and the “phospho-p65 staining in tumor cells (IHC)” value (phospho-p65 (NF-κB); vs vehicle treated group) was “severely diminished”. The “protein levels of phospho- and total p65 in tumor (immunoblot)” value (phospho-p65 (NF-κB); vs vehicle treated group) was “robust decrease in the protein levels of phospho- and total p65”, the “relative transcript levels of Ddit3 in GA muscle” value [1, 5] was “upregulation of relative transcript levels of Ddit3” and the “relative transcript levels of Ern1 in GA muscle” value [1, 5] was “no significant difference in relative transcript levels of Ern1”. The “transcript levels of Eif2ak3, Atf4, Pppr1r15a, Hspa5, Hsp90B1, Tnfrsf10B in GA muscle” value [1, 5] was “reduction in Eif2ak3, Atf4, Pppr1r15a, Hspa5, Hsp90B1, and Tnfrsf10B”, the “relative transcript levels of Ddit3 and Ern1 in GA muscle” value [1, 6] was “significant increase in relative transcript levels of Ddit3 and Ern1” and the “transcript levels of Eif2ak3, Atf4, Pppr1r15a, Hspa5, Hsp90B1, Tnfrsf10B in GA muscle” value [1, 6] was “decrease in relative transcript levels of Eif2ak3, Atf4, Pppr1r15a, Hspa5, Hsp90B1, and Tnfrsf10B”. The “relative mRNA expression of Sqstm1, Map1lc3b, Becn1” value [1, 7] was “significant dose-dependent reduction in relative mRNA expression of the select ALS markers”, the “transcription of Fbxo30, Fbxo32, Trim63, Traf6” value [1, 7] was “statistically significant dose-dependent transcriptional downregulation of Fbxo30, Fbxo32, Trim63, and Traf6” and the “relative transcript levels of Pax7 and Myod1 in GA muscle” value ([1]; tumor-free and tumor-bearing WFA-treated groups) was “significant increases in both Pax7 and Myod1”. For the same compound, the “relative transcriptional expression of Fbxo30 and Traf6” value ([1]; tumor-free, 2 mg/kg, vs vehicle-treated) was “significant reduction in the relative transcriptional expression of Fbxo30 and Traf6”, the “relative gene expression of Fbxo30, Fbxo32, Trim63, Traf6” value [1, 8] was “significant reduction in relative gene expression of Fbxo30, Fbxo32, Trim63, and Traf6” and the “relative gene expression of Sqstm1, Map1lc3b, Becn1” value [1, 8] was “significant reduction in relative gene expression”. For the same compound, the “transcript levels of Atf4 and Tnfrsf10B in GA muscle” value [1, 9] was “no change in transcript levels of Atf4 and Tnfrsf10B”, the “transcript levels of Eif2ak3, Ddit3, Pppr1r15a, Ern1 in GA muscle” value [1, 9] was “transcriptional upregulation of Eif2ak3, Ddit3, Pppr1r15a, and Ern1” and the “transcript levels of Hspa5 and Hsp90B1 in GA muscle” value [1, 9] was “downregulation of Hspa5 and Hsp90B1”. The “plasma Ang II levels” value (Ang II; WFA 2 mg/kg) was 2.15 ± 0.015 ng/mL, the “plasma Ang II levels” value (Ang II; WFA 4 mg/kg) was 2.07 ± 0.08 ng/mL and the “cell cycle arrest and apoptosis” value (SKOV3) was “induces cell cycle arrest and the induction of apoptosis”. For the same compound, the “survival (Kaplan-Meier)” value ([2]; 2 mg/kg, vs WFA 6 mg/kg and vehicle treated groups) was “higher survival rate”, the “toxicity of high dose” value ([2]; 6 mg/kg IP every three days, tumor-bearing NSG mice) was “may be a lethal dose” and the “survival (Kaplan-Meier)” value ([2]; 6 mg/kg, vs vehicle treated group (p=0.06)) was “trend towards an increase in survival”.
